Experimental data as given in patent publication US5661154A (priority 1988, dated 1997).
“Also recorded” adds a separate entry of the source. Like-named read-outs stand apart in the source and are kept apart here.

Assays:
serum uric acid = experiment: Uric acid decreasing effect in test persons with hyperuricaemia; assay type: in vivo; details: for decrease of the serum uric acid level: daily 384 mg sodium oxypurinol or 300 mg allopurinol, two weeks; for decrease of the serum uric acid level (in words): sodium oxypurinol compared with allopurinol
[1] = portion of allopurinol; cited from earlier work
xanthine oxidase = details: cited from earlier work; for inhibiting the enzyme xanthine oxidase: allopurinol and oxypurinol compared with each other
[2] = cited from earlier work
Solubility = assay type: physicochemical; details: methanol/water 3:1, organic solvent or mixture; 25° C.; read-out: solubility in methanol/water (3:1 by vol.)
Source text: (§1) Said sodium salt is monosodium oxypurinol monohydrate. The salt is white and crystallizes in fine needles.

[3] = Stability of the salt on air and on drying; assay type: physicochemical
Experimental: The salt is stable on air and endures drying temperatures up to about 70° C.

[4] = pH value of aqueous solution; assay type: physicochemical; details: 5% aqueous solution
Source text: However, from the examples it can be seen that not the pure sodium salt was used, but a mixture of salt and excess sodium hydroxide solution. This follows especially from the pH values of about 1 to 2% solutions, being 11.5 or 12.0. The sodium salt having been prepared by the applicant in pure and crystalline form for the first time has a pH value of 9.7 in 5% aqueous solution, and crystallizes as the monohydrate.
as §1

| Structure (SMILES) | decrease of the serum uric acid level (serum uric acid) [mg/100 ml] | decrease of the serum uric acid level (in words) (serum uric acid) | excreted via kidneys [1] [%] | inhibiting the enzyme xanthine oxidase (xanthine oxidase) | activity of allopurinol itself (xanthine oxidase; therapeutic effect only after metabolizing to oxypurinol) | resorbable upon peroral application ([2]; in vivo) | resorbable upon peroral application ([2]; from galenic formulations, per os) | decrease of the serum uric acid level (in words) (serum uric acid; monohydrate) | solubility (Solubility) [µg/mL] | endures drying temperatures up to ([3]; drying) | stability on air ([3]; on air) | pH value [4] |
| --- | --- | --- | --- | --- | --- | --- | --- | --- | --- | --- | --- | --- |
| Oc1ncnc2[nH]ncc12 [allopurinol] | 2.0 | comparable; also recorded: approximately equal decrease | 3 to 10 | equally strongly | little activity itself | well resorbable |  |  |  |  |  |  |
| Oc1nc(O)c2cn[nH]c2n1 [oxypurinol, 4,6-dihydroxypyrazolo[3,4-d]pyrimidine] |  |  |  | equally strongly |  |  | no success was achieved in finding a galenic formulation being sufficiently resorbable per os |  |  |  |  |  |
| Oc1nc(O)c2cn[nH]c2n1 [sodium oxypurinol, monosodium oxypurinol monohydrate] | 2.1 |  |  |  |  |  |  | comparable; also recorded: approximately equal decrease | ~2000 | about 70 °C | stable on air | 9.7 |
